Results taken from US20250387388A1, “COMPOUND AS TRK INHIBITOR AND/OR RET INHIBITOR AND USE THEREOF” (Medinno Pharmaceutical Technology (Zhuhai) Co., Ltd., priority 2022, published 2025).

Legend:
alopecia areata in mice = test: Alopecia areata model in mice (imiquimod); assay type: in vivo, C3H/HeJ mice
Description: • Blank control group (no treatment) (N=5) • Blank alopecia areata model group (no treatment) (N=8) • Alopecia areata model+blank excipient group (vehicle treatment: blank gel preparation, dose: 1.5 g/kg per mouse, twice daily per mouse) (N=8) • Alopecia areata model+positive control drug group (compound Betamethasone cream (corticosteroid), twice daily, 50 mg each time per mouse) (N=8) • Alopecia areata model+0.5% MDI-1228 compound gel preparation group (dose: 1.0 g/kg per mouse, twice daily per mouse) (N=8) • Alopecia areata model+1% MDI-1228 compound gel preparation group (dose: 1.5 g/kg per mouse, twice daily per mouse) (N=8) • Alopecia areata model+3% MDI-1228 compound gel preparation group (dose: 1.5 g/kg per mouse, twice daily) (N=8) • Blank alopecia areata model (vehicle treatment: 5% DMSO+75% PEG300+20% EtOH) (N=8)
Modeling: Imiquimod cream was applied to the nape of the animals (no hair removal required), three times a week for three consecutive weeks. The control group was treated with a blank excipient without imiquimod. Each time, a clean medical cotton swab was used to apply approximately 0.03 g of imiquimod evenly over an area of about 1 cm×1 cm, and the application site was cleaned with normal saline before each application. The operation was performed gently to avoid skin abrasions or mechanical hair loss due to friction. […] During the modeling, the hair loss of the mice was recorded.
The blank control group (untreated) received no treatment; the drug groups were treated with the corresponding doses of compound betamethasone cream, blank gel preparation, and MDI-1228 compound gel preparation applied to the skin, twice daily (at 9 AM and 5 PM, with an interval of at least 6 hours). Note: To prevent animals from licking the medication off each other, after the gel was applied, the animals were placed individually in a pad-free independent cage to move around for a period of time to allow the gel to air dry for 1 hour before being returned to the normal feeding cage. Single housing is discouraged as it can lead to depression; wrapping the application area with gauze is also prohibited as it can absorb the medication.
During the treatment period, the local changes in the hair loss area of the mice were observed, and the hair growth and adverse reactions were recorded in detail, and scores were assigned according to the following table.
The reagents and instruments required for HE staining included: Hematoxylin staining solution (AR11800-1, BOSTER); Eosin staining solution (AR11800-2, BOSTER); Ultra-clean advanced mounting medium (YZB, BASO); Scott's blueing solution (G1865, Solarbio), etc. Medication refrigerator (BYC-310, Shandong Bokai Biotech); Microscope (CX41 OLYMPUS); Microtome (BQ-318D, Berne); Electric heating blast drying oven (DHG-9070A, Hengke Scientific Instrument Co., Ltd.). The taken tissue was rinsed with running water for several hours, dehydrated through a series of ethanol solutions (70%, 80%, 90%), and then treated with a mixture of pure alcohol and xylene at a ratio of 1:1 for 15 minutes, followed by xylene I for 15 minutes and xylene II for 15 minutes until transparent. The tissue was then placed in a mixture of xylene and paraffin at a ratio of 1:1 for 15 minutes, followed by immersion with paraffin I and paraffin II each for 50-60 minutes. The tissue was embedded in paraffin and sectioned.

vitiligo model in mice = test: Vitiligo model in mice (monobenzone); assay type: in vivo, C57BL/6 mice; settings: for IL-6 level in serum / TNF-α level in serum: 3% MDI-1228 gel
Description: • (1) Normal control group (5 mice, no treatment) • (2) Vitiligo model group (8 mice, no treatment) • (3) Vitiligo model+vehicle treatment group (8 mice, blank gel preparation, dose: 1.5 g/kg, twice daily) • (4) Vitiligo model+positive control drug treatment group (8 mice, 0.03% Tacrolimus, twice daily, 50 mg per dose) • (5) Vitiligo model+MDI-1228 (0.5%) compound gel preparation group (8 mice, 1 g/kg, twice daily) • (6) Vitiligo model+MDI-1228 (1%) compound gel preparation group (8 mice, 1.5 g/kg, twice daily) • (7) Vitiligo model+MDI-1228 (3%) compound gel preparation group (8 mice, 1.5 g/kg, twice daily) • Experimental environment: Temperature 20° C.-26° C., humidity 40%-70%
Modeling: Mice were acclimated for 7 days and subjected to vitiligo modeling by removing the black hair from a 2 cm^2 area on the back of the mice and applying the medication with a spatula using moderate force. The normal control group was administrated with Vaseline 50 mg once daily; and the model group was administrated with 40% monobenzone cream 50 mg once daily for 93 consecutive days.
Model validation: One mouse from the blank group and one from the model group were selected for model validation. The criteria for hair depigmentation assessment: Observe the skin & hair depigmentation daily and record the scores. Divide the depigmented area into the treated area and the non-treated area, with a total score of 5 for each area, making a total of 10 points for each mouse. The scoring criteria for mouse skin & hair depigmentation: 0 points for no depigmentation, 1 point for depigmentation area of 0-10%, 2 points for depigmentation area of 11%-25%, 3 points for depigmentation area of 26%-50%, 4 points for depigmentation area of 51%-75%, and 5 points for depigmentation area of 76%-100%.
After a 35-days treatment administration, a 15-day visual observation of the therapeutic efficacy for vitiligo in the treated mice began, with observations conducted every 3 days (for a total of 5 times) and photographs taken during each observation. The criteria for evaluating efficacy were as follows: The depigmented areas were divided into treated and non-treated areas, with a total score of 5 for each area, making a total of 10 points for each mouse. The scoring criteria for mouse skin & hair depigmentation are: 0 points for no depigmentation, 1 point for a depigmentation area of 0-10%, 2 points for a depigmentation area of 11%-25%, 3 points for a depigmentation area of 26%-50%. 4 points for a depigmentation area of 51%-75%, and 5 points for a depigmentation area of 76%-100%.
(1) HE Staining: The removed tissue was rinsed with running water for several hours, dehydrated through a series of ethanol solutions (70%, 80%, 90%), and then treated with a mixture of pure alcohol and xylene at a ratio of 1:1 for 15 minutes, followed by xylene I for 15 minutes and xylene II for 15 minutes (until transparent). The tissue was then placed in a mixture of xylene and paraffin at a ratio of 1:1 for 15 minutes, followed by immersion with paraffin I and paraffin II each for 50-60 minutes. The tissue was embedded in paraffin and sectioned. The sections were mounted, baked, dewaxed and hydrated in distilled water. The resulting sections were then stained in hematoxylin solution for 3 minutes, differentiated in a hydrochloric acid alcohol solution for 15 seconds, slightly washed, blued in a return blue solution for 15 seconds, rinsed with running water, stained with eosin for 3 minutes, rinsed with running water, dehydrated, cleared, and mounted for microscopic examination.
(2) ELISA detection: A double-antibody one-step sandwich Enzyme-linked Immunosorbent Assay (ELISA) kit was used. A capture antibody for the mouse target indicators was pre-coated onto microplate wells, to which samples, standards, and HRP-labeled detection antibodies were added sequentially, followed by incubation and thorough washing. […]

[1] = 0.5%, 1%, positive control drug, vs. model group

## CCc1cc(O)c(F)cc1-c1ccc2c(-c3nc4c([nH]3)CN(C(=O)N3CC[C@H](O)C3)C4)n[nH]c2c1 [MDI-1228, (S)-(2-(6-(2-ethyl-5-fluoro-4-hydroxyphenyl)-1H-indazol-3-yl)-4,6-dihydropyrrolo[3,4-d]imidazol-5-(1H)-yl)(3-hydroxylpyrrolidin-1-yl)ketone]
Alopecia areata in mice; 0.5%, 1%, 3% MDI-1228 gel
  Skin HE staining (hair follicles): some therapeutic effect
Alopecia areata in mice; 0.5%, 1%, 3% MDI-1228 gel twice daily, vs. blank gel group
  Area under the curve (AUC) of hair growth scores: significantly promoted hair growth in alopecia areata animals
Alopecia areata in mice; 3% MDI-1228 gel
  Hair growth scores after 21 days: the best effect
Alopecia areata in mice; all MDI-1228 treatment groups (0.5%, 1%, 3% gel), vs. model group
  Hair growth scores after 21 days: significantly higher than the model group
Alopecia areata in mice; mouse, in vivo
  Symptoms of alopecia areata (conclusion): can improve the symptoms of alopecia areata in mice to a certain extent
Vitiligo model in mice; 0.5%, 1%, 3% MDI-1228 gel twice daily, vs. model group
  Skin & hair depigmentation area scores: a reduction in depigmentation area scores
Vitiligo model in mice; [1]
  IL-6 level in serum: a reduced IL-6 level
  TNF-α level in serum: a reduced TNF-α level
Vitiligo model in mice; 1% and 3% MDI-1228 gel
  Skin HE staining (hair follicles, melanin granules): the most significant effects
Vitiligo model in mice
  IL-6 level in serum: the most significant reduction in IL-6 level
  TNF-α level in serum: the most significant reduction in TNF-α level
Vitiligo model in mice; 3% MDI-1228 gel 1.5 g/kg twice daily, vs. model group
  Area under the curve (AUC) of depigmentation scores: the greatest reduction in AUC scores
Vitiligo model in mice; different concentrations of MDI-1228
  Therapeutic effect in vitiligo mice (conclusion): significant therapeutic effect
